According to US10266537B2, “3-acetylenyl-pyrazole-pyrimidine derivative, and preparation method therefor and uses thereof” (Si Chuan University, priority 2015, dated 2019):
Where two headings read alike, the source gives them in different places.

What was measured:
Btk = Btk (Homo sapiens (Human), UniProt Q06187); assay: Kinase inhibition assay (KinaseProfiler, 33P-ATP); assay type: biochemical; conditions: for remaining activity at 10 µM: BTK(h), read-out: The percentage of the remaining active protein
Chain of Btk (Q06187 whole entry): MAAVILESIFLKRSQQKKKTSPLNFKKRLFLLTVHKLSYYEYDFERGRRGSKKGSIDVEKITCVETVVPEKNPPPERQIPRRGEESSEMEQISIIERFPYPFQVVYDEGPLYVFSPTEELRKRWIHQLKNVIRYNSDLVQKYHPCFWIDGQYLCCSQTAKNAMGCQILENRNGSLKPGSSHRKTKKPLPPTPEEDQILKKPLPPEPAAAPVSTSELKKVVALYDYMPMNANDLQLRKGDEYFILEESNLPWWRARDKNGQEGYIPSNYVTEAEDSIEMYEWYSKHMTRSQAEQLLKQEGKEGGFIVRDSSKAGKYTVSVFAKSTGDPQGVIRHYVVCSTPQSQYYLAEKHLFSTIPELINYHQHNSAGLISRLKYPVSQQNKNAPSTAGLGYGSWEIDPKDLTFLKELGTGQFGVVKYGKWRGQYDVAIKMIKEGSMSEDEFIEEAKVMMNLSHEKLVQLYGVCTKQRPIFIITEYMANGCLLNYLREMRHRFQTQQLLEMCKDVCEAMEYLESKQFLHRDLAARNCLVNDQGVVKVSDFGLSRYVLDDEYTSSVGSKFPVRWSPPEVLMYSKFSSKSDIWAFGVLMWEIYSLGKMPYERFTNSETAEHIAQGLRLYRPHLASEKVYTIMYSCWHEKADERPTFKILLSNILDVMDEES

PKBα(h) = PKBα(h) (Homo sapiens (Human), UniProt P31749); assay: Kinase inhibition assay (KinaseProfiler, 33P-ATP); assay type: biochemical; conditions: read-out: The percentage of the remaining active protein
CHK1(h) = CHK1(h) (Homo sapiens (Human), UniProt O14757); assay: Kinase inhibition assay (KinaseProfiler, 33P-ATP); assay type: biochemical; conditions: read-out: The percentage of the remaining active protein
Tie2 = Tie2 (Homo sapiens (Human), UniProt Q02763); assay: Kinase inhibition assay (KinaseProfiler, 33P-ATP); assay type: biochemical; conditions: Tie2 (h), read-out: The percentage of the remaining active protein
PDGFRα = PDGFRα (Homo sapiens (Human), UniProt P16234); assay: Kinase inhibition assay (KinaseProfiler, 33P-ATP); assay type: biochemical; conditions: for remaining activity at 10 µM: PDGFRα(h), read-out: The percentage of the remaining active protein
Chain of PDGFRα (P16234 24-1089): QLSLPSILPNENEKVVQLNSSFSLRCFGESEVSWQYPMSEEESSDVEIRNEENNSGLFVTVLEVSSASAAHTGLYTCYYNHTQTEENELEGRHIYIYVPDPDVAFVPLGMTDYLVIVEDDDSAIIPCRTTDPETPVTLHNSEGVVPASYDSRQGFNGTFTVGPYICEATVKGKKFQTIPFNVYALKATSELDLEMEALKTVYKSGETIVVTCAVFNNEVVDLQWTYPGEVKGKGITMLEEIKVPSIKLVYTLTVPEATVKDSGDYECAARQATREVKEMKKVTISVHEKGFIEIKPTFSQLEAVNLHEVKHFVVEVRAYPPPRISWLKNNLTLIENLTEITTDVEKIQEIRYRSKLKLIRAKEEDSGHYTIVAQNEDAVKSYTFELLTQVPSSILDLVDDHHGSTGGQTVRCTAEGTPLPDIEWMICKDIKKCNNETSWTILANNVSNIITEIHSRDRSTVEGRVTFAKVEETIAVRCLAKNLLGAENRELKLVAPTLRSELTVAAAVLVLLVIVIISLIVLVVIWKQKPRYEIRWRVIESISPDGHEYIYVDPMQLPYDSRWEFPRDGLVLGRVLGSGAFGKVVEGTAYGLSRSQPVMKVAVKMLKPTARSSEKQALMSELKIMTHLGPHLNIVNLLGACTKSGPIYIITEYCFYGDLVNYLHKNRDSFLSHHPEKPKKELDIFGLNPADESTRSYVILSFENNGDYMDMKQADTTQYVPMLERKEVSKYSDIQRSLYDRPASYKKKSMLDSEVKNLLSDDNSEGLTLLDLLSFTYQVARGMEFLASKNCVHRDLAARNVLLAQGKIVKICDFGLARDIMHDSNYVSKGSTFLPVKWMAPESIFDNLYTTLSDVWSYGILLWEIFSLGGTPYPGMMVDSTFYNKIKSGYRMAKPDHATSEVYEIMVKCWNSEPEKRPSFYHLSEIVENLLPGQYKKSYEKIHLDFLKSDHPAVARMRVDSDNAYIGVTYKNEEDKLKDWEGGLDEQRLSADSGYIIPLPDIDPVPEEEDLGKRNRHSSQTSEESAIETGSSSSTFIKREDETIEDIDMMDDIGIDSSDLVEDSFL

IKKβ = IKKβ (Homo sapiens (Human), UniProt O14920); assay: Kinase inhibition assay (KinaseProfiler, 33P-ATP); assay type: biochemical; conditions: IKKβ(h), read-out: The percentage of the remaining active protein
KDR = KDR (Homo sapiens (Human), UniProt P35968); assay: Kinase inhibition assay (KinaseProfiler, 33P-ATP); assay type: biochemical; conditions: for remaining activity at 10 µM: KDR(h), read-out: The percentage of the remaining active protein
Bmx = Bmx (Homo sapiens (Human), UniProt P51813); assay: Kinase inhibition assay (KinaseProfiler, 33P-ATP); conditions: for remaining activity at 10 µM: read-out: The percentage of the remaining active protein
Chain of Bmx (P51813 whole entry): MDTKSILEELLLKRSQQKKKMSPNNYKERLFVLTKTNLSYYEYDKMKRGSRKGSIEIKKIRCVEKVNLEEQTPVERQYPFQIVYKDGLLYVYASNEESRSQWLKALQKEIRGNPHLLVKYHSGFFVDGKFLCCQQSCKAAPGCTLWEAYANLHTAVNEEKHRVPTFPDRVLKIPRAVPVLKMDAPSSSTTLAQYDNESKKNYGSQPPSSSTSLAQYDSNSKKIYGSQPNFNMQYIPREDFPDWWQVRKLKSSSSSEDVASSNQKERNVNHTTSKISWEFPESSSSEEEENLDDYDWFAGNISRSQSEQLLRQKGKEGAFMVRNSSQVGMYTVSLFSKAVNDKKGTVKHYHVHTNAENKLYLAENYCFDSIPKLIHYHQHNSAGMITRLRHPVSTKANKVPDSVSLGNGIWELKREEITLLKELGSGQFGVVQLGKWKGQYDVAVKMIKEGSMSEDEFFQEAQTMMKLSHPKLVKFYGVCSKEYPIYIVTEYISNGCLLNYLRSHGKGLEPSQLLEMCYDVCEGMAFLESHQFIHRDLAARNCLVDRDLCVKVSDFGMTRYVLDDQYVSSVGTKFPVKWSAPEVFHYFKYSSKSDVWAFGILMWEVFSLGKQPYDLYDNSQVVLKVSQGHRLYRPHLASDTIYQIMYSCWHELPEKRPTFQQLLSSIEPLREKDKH

mTOR(h) = mTOR(h) (Homo sapiens (Human), UniProt P42345); assay: Kinase inhibition assay (KinaseProfiler, 33P-ATP); assay type: biochemical; conditions: read-out: The percentage of the remaining active protein
HT29 = assay: Cell proliferation inhibition assay (MTT); assay type: cell-based; conditions: Homo sapiens, HT-29; HT29; MTT, 72 hours; read-out: Proliferation inhibitory activity IC50
Method: (§1) The cells were seeded in 96-well plates with 200 μL of cell suspension per well and incubated overnight in a cell culture medium with a cell concentration of 1 2×10^4 cells/mL. The next day, the supernatant was discarded (the suspension cell was centrifuged before it) and the cells were treated with gradient concentrations of the test compound, respectively. […] After 72 hours, add 20 μL of MTT reagent at a concentration of 5 mg/mL per well. After incubation for 2-4 h, the supernatant was discarded and 150 μL of DMSO was added to each well. […] Relative cell proliferation inhibition rate=([MUT]-[MUT])×100%/[MUT]. The experiment was repeated at least 3 times. Experimental data were expressed as mean, data statistics using t test, P<0.05 for the difference was statistically significant.

EphB2 = EphB2 (Homo sapiens (Human), UniProt P29323); assay: Kinase inhibition assay (KinaseProfiler, 33P-ATP); assay type: biochemical; conditions: for remaining activity at 10 µM: EphB2(h), read-out: The percentage of the remaining active protein; for IC50: EphB2, ATP at Km
Chain of EphB2 (P29323 19-1055): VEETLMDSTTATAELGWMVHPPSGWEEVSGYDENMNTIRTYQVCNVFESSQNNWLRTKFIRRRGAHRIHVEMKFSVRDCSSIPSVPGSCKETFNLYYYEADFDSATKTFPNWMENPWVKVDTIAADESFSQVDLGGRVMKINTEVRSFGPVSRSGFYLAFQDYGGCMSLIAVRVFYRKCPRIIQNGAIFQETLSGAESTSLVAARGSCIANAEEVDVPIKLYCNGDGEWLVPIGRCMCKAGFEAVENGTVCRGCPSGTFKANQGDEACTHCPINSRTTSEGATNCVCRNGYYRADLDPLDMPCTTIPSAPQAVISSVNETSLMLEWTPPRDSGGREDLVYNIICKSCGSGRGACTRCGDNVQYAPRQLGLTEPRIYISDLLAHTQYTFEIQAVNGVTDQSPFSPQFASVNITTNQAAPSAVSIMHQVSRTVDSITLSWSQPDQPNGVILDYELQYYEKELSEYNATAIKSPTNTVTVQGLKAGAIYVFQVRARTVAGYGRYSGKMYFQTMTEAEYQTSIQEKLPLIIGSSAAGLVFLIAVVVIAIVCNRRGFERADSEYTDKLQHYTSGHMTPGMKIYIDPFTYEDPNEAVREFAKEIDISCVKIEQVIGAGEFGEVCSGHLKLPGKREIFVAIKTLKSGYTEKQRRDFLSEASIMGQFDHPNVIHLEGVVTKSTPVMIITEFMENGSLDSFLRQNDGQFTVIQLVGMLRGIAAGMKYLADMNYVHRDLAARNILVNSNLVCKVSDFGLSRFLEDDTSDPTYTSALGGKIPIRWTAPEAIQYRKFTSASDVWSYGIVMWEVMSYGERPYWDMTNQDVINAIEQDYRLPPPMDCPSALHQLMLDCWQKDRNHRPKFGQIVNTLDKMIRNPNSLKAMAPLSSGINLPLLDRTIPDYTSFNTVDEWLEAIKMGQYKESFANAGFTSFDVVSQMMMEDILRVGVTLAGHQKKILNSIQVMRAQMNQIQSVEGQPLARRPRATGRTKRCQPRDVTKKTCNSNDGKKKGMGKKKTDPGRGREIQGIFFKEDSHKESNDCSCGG

RIPK2(h) = RIPK2(h) (Homo sapiens (Human), UniProt O43353); assay: Kinase inhibition assay (KinaseProfiler, 33P-ATP); assay type: biochemical; conditions: read-out: The percentage of the remaining active protein
B-Raf = B-Raf (Homo sapiens (Human), UniProt P15056); assay: Kinase inhibition assay (KinaseProfiler, 33P-ATP); conditions: for remaining activity at 10 µM: read-out: The percentage of the remaining active protein
Chain of B-Raf (P15056 whole entry): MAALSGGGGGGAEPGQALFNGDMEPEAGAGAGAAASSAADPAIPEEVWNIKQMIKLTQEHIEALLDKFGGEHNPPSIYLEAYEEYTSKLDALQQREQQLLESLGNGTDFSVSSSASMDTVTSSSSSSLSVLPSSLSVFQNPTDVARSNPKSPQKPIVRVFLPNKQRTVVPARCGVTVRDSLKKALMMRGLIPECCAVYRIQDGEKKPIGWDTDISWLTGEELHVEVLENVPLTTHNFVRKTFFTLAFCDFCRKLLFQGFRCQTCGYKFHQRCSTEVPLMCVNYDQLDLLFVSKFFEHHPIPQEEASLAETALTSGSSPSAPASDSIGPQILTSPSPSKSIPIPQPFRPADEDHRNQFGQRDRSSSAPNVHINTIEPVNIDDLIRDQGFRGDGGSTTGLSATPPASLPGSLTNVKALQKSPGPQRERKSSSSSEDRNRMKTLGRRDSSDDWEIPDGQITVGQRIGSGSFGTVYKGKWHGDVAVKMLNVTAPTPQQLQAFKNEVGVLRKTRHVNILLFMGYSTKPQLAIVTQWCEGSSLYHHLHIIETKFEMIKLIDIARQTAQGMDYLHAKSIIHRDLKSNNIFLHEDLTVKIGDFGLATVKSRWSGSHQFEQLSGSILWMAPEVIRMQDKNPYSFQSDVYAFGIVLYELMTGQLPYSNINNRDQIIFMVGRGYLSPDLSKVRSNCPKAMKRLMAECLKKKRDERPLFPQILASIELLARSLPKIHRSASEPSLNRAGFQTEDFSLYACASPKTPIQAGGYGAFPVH

Itk(h) = Itk(h) (Homo sapiens (Human), UniProt Q08881); assay: Kinase inhibition assay (KinaseProfiler, 33P-ATP); assay type: biochemical; conditions: read-out: The percentage of the remaining active protein
Fyn = Fyn (Homo sapiens (Human), UniProt P06241); assay: Kinase inhibition assay (KinaseProfiler, 33P-ATP); assay type: biochemical; conditions: for remaining activity at 10 µM: Fyn(h), read-out: The percentage of the remaining active protein; for IC50: Fyn, ATP at Km
CDK7 = CDK7 (Homo sapiens (Human), UniProt P50613); assay: Kinase inhibition assay (KinaseProfiler, 33P-ATP); assay type: biochemical; conditions: read-out: The percentage of the remaining active protein
PKCα(h) = PKCα(h) (Homo sapiens (Human), UniProt P17252); assay: Kinase inhibition assay (KinaseProfiler, 33P-ATP); assay type: biochemical; conditions: read-out: The percentage of the remaining active protein
JNK1α1(h) = JNK1α1(h) (Homo sapiens (Human), UniProt P45983); assay: Kinase inhibition assay (KinaseProfiler, 33P-ATP); assay type: biochemical; conditions: read-out: The percentage of the remaining active protein
Tec(h) activated = Tec(h) activated (Homo sapiens (Human), UniProt P42680); assay: Kinase inhibition assay (KinaseProfiler, 33P-ATP); assay type: biochemical; conditions: read-out: The percentage of the remaining active protein
c-RAF = c-RAF (Homo sapiens (Human), UniProt P04049); assay: Kinase inhibition assay (KinaseProfiler, 33P-ATP); assay type: biochemical; conditions: for remaining activity at 10 µM: c-RAF(h), read-out: The percentage of the remaining active protein
Chain of c-RAF (P04049 whole entry): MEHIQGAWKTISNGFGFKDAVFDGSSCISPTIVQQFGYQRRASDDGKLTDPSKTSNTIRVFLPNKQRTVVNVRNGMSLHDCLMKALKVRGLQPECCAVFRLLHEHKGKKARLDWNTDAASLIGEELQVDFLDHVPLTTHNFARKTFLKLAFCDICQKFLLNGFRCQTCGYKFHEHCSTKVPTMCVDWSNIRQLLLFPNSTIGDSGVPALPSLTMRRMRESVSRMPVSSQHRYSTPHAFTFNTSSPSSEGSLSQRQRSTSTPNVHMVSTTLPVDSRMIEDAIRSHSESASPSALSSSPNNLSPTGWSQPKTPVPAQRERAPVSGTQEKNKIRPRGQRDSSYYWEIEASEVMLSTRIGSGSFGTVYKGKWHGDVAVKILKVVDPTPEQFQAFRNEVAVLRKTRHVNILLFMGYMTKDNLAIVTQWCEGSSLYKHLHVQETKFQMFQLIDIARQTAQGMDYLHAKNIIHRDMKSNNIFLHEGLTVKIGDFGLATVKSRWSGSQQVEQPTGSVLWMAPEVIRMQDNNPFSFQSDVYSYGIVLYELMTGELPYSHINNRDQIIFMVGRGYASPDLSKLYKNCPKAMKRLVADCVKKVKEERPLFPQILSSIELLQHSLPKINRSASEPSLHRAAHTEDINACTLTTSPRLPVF

FAK(h) = FAK(h) (Homo sapiens (Human), UniProt Q05397); assay: Kinase inhibition assay (KinaseProfiler, 33P-ATP); assay type: biochemical; conditions: read-out: The percentage of the remaining active protein
MDA-MB-231 = assay: Cell proliferation inhibition assay (MTT); assay type: cell-based, human; conditions: Homo sapiens, MDA-MB-231, MTT, 72 hours
Blk = Blk (Homo sapiens (Human), UniProt P51451); assay: Kinase inhibition assay (KinaseProfiler, 33P-ATP); assay type: biochemical; conditions: for remaining activity at 10 µM: Blk(h), read-out: The percentage of the remaining active protein
EphB4 = EphB4 (Homo sapiens (Human), UniProt P54760); assay: Kinase inhibition assay (KinaseProfiler, 33P-ATP); assay type: biochemical
GSK3β(h) = GSK3β(h) (Homo sapiens (Human), UniProt P49841); assay: Kinase inhibition assay (KinaseProfiler, 33P-ATP); assay type: biochemical; conditions: read-out: The percentage of the remaining active protein
PKBβ(h) = PKBβ(h) (Homo sapiens (Human), UniProt P31751); assay: Kinase inhibition assay (KinaseProfiler, 33P-ATP); assay type: biochemical; conditions: read-out: The percentage of the remaining active protein
PI3 Kinase a(h) = PI3 Kinase a(h) (Homo sapiens (Human), UniProt P42336); assay: Kinase inhibition assay (KinaseProfiler, 33P-ATP); assay type: biochemical; conditions: read-out: The percentage of the remaining active protein
MDA-MB-435 = assay: Cell proliferation inhibition assay (MTT); assay type: cell-based, human; conditions: Homo sapiens, MDA-MB-435, MTT, 72 hours
Method: The remaining cell lines were cultured in DMEM complete medium containing 10% fetal bovine serum (MV4-11 cells 20%), 100 U/ml penicillin, 100 μg/mL streptomycin at 5% CO2, and 37° C.
The cells were seeded in 96-well plates with 200 μL of cell suspension per well and incubated overnight in a cell culture medium with a cell concentration of 1˜2×10^4 cells/mL. The next day, the supernatant was discarded (the suspension cell was centrifuged before it) and the cells were treated with gradient concentrations of the test compound, respectively. At the same time, the drug-free negative control group and the equal volume of solvent control group, DMSO concentration of 0.1%, each dose group set up three wells, 37° C., 5% CO2 conditions. After 72 hours, add 20 μL of MTT reagent at a concentration of 5 mg/mL per well. After incubation for 2-4 h, the supernatant was discarded and 150 μL of DMSO was added to each well. […] Determine the absorbance (A) value (λ=570 nm, A value is proportional to the number of living cells), whichever is the average. […] The experiment was repeated at least 3 times. Experimental data were expressed as mean, data statistics using t test, P<0.05 for the difference was statistically significant. The inhibitory effects of the following compounds on cell proliferation were expressed as IC50 or inhibition rates.

BT474 = assay: Cell proliferation inhibition assay (MTT); assay type: cell-based; conditions: Homo sapiens, BT-474; BT474; MTT, 72 hours; read-out: Proliferation inhibitory activity IC50
Method: as §1

PAK1(h) = PAK1(h) (Homo sapiens (Human), UniProt Q13153); assay: Kinase inhibition assay (KinaseProfiler, 33P-ATP); assay type: biochemical; conditions: read-out: The percentage of the remaining active protein
Fms(h) = Fms(h) (Homo sapiens (Human), UniProt P07333); assay: Kinase inhibition assay (KinaseProfiler, 33P-ATP); assay type: biochemical; conditions: read-out: The percentage of the remaining active protein
[1] = read-out: Proliferation inhibitory activity IC50
[2] = read-out: Proliferative inhibitory activity MDA-MB-231 (IC50 class)
[3] = read-out: Proliferative inhibitory activity MDA-MB-435 (IC50 class)

Structure (SMILES): Cc1ccc(NC(=O)c2cccc(C(F)(F)F)c2)cc1C#Cc1nn(C2CCN(C)CC2)c2ncnc(N)c12 [Compound 31]
- remaining activity at 10 µM (Btk; compound at 10 μM): -3%
- IC50 (Btk; Btk, ATP at Km): 0.127 µM
- remaining activity at 10 µM (PKBα(h); compound at 10 μM): 56%
- remaining activity at 10 µM (CHK1(h); compound at 10 μM): 100%
- remaining activity at 10 µM (Tie2; compound at 10 μM): 3%
- remaining activity at 10 µM (PDGFRα; compound at 10 μM): 3%
- IC50 (PDGFRα; PDGFRα, ATP at Km): 0.396 µM
- remaining activity at 10 µM (IKKβ; compound at 10 μM): 42%
- remaining activity at 10 µM (KDR; compound at 10 μM): 3%
- IC50 (KDR; KDR, ATP at Km): 0.012 µM
- IC50 (Bmx): 0.018 µM
- remaining activity at 10 µM (Bmx): 0%
- remaining activity at 10 µM (mTOR(h); compound at 10 μM): 81%
- IC50 (HT29): 0.35 µM
- remaining activity at 10 µM (EphB2; compound at 10 μM): -1%
- IC50 (EphB2): 0.01 µM
- remaining activity at 10 µM (RIPK2(h); compound at 10 μM): 15%
- IC50 (B-Raf; B-Raf, ATP at Km): 0.022 µM
- remaining activity at 10 µM (B-Raf): 1%
- remaining activity at 10 µM (Itk(h); compound at 10 μM): 92%
- remaining activity at 10 µM (Fyn; compound at 10 μM): -1%
- IC50 (Fyn): 0.003 µM
- remaining activity at 10 µM (CDK7; CDK7, compound at 10 μM): 70%
- remaining activity at 10 µM (PKCα(h); compound at 10 μM): 92%
- remaining activity at 10 µM (JNK1α1(h); compound at 10 μM): 36%
- remaining activity at 10 µM (Tec(h) activated; compound at 10 μM): 13%
- remaining activity at 10 µM (c-RAF; compound at 10 μM): 2%
- IC50 (c-RAF; c-RAF, ATP at Km): 0.019 µM
- remaining activity at 10 µM (FAK(h); compound at 10 μM): 26%
- IC50 (MDA-MB-231; [1]): 0.0153 µM
- IC50 (MDA-MB-231; [2]): < 0.1 µM
- remaining activity at 10 µM (Blk; compound at 10 μM): -1%
- IC50 (Blk; Blk, ATP at Km): 0.012 µM
- IC50 (EphB4; EphB4, ATP at Km): 0.011 µM
- remaining activity at 10 µM (GSK3β(h); compound at 10 μM): 99%
- remaining activity at 10 µM (PKBβ(h); compound at 10 μM): 14%
- remaining activity at 10 µM (PI3 Kinase a(h); PI3 Kinase a(h), compound at 10 μM): 98%
- IC50 (MDA-MB-435; [1]): 0.0147 µM
- IC50 (MDA-MB-435; [3]): < 0.1 µM
- IC50 (BT474): > 10 µM
- remaining activity at 10 µM (PAK1(h); compound at 10 μM): 36%
- remaining activity at 10 µM (Fms(h); compound at 10 μM): 1%

Structure (SMILES): Cc1ccc(NC(=O)c2ccc(C)c(C(F)(F)F)c2)cc1C#Cc1nn([C@H]2CC[C@H](O)CC2)c2ncnc(N)c12 [Compound 93]
- remaining activity at 10 µM (Btk; 10 μM): 10%
- remaining activity at 10 µM (PKBα(h); 10 μM): 101%
- remaining activity at 10 µM (CHK1(h); 10 μM): 114%
- remaining activity at 10 µM (Tie2; 10 μM): 1%
- remaining activity at 10 µM (PDGFRα; 10 μM): 60%
- remaining activity at 10 µM (IKKβ; 10 μM): 33%
- remaining activity at 10 µM (KDR; 10 μM): 2%
- IC50 (Bmx; Bmx, ATP at Km): 0.021 µM
- remaining activity at 10 µM (Bmx): -1%
- remaining activity at 10 µM (mTOR(h); 10 μM): 101%
- IC50 (HT29): 0.23 µM
- remaining activity at 10 µM (EphB2; 10 μM): -1%
- IC50 (EphB2): 0.033 µM
- remaining activity at 10 µM (RIPK2(h); 10 μM): 21%
- remaining activity at 10 µM (B-Raf): 7%
- remaining activity at 10 µM (Itk(h); 10 μM): 102%
- remaining activity at 10 µM (Fyn; 10 μM): 0%
- IC50 (Fyn): 0.006 µM
- remaining activity at 10 µM (CDK7; CDK7/cyclinH/MAT1(h), 10 μM): 103%
- remaining activity at 10 µM (PKCα(h); 10 μM): 110%
- remaining activity at 10 µM (JNK1α1(h); 10 μM): 35%
- remaining activity at 10 µM (Tec(h) activated; 10 μM): 24%
- remaining activity at 10 µM (c-RAF; 10 μM): 24%
- remaining activity at 10 µM (FAK(h); 10 μM): 45%
- IC50 (MDA-MB-231; [1]): 0.03 µM
- IC50 (MDA-MB-231; [2]): < 0.1 µM
- remaining activity at 10 µM (Blk; 10 μM): 0%
- remaining activity at 10 µM (EphB4; EphB4(h), 10 μM, read-out: The percentage of the remaining active protein): 1%
- remaining activity at 10 µM (GSK3β(h); 10 μM): 26%
- remaining activity at 10 µM (PKBβ(h); 10 μM): 127%
- remaining activity at 10 µM (PI3 Kinase a(h); PI3 Kinase (p110a/p85a)(h), 10 μM): 79%
- IC50 (MDA-MB-435; [3]): < 0.1 µM
- IC50 (BT474): > 10 µM
- remaining activity at 10 µM (PAK1(h); 10 μM): 87%
- remaining activity at 10 µM (Fms(h); 10 μM): 4%
